# Like-named read-outs stand apart in the source and are kept apart here.
# Experiments:
# Test in all cases: KiNativ, MOLM13 live cells
# Format in all cases: cell-based
# [1] = target: NEK2 (Homo sapiens, UniProt P51955); conditions: MOLM-13; 100 nM, 2 hours; Lys2; read-out: Inhibition vs DMSO
# Experimental: (§1) Samples were analyzed by KiNativ in situ kinase profiling by ActivX Biosciences.
# [2] = target: T1, JAK2 domain2 (Homo sapiens, UniProt O60674); conditions: 100 nM, 2 hours; Activation Loop
# T1 construct: JAK2 domain2
# Experimental: as §1
# [3] = target: T2, TLK1 (Homo sapiens, UniProt Q9UKI8); conditions: MOLM-13; 100 nM, 2 hours; Lys2; read-out: Inhibition vs DMSO
# T2 sequence (Q9UKI8 1-766): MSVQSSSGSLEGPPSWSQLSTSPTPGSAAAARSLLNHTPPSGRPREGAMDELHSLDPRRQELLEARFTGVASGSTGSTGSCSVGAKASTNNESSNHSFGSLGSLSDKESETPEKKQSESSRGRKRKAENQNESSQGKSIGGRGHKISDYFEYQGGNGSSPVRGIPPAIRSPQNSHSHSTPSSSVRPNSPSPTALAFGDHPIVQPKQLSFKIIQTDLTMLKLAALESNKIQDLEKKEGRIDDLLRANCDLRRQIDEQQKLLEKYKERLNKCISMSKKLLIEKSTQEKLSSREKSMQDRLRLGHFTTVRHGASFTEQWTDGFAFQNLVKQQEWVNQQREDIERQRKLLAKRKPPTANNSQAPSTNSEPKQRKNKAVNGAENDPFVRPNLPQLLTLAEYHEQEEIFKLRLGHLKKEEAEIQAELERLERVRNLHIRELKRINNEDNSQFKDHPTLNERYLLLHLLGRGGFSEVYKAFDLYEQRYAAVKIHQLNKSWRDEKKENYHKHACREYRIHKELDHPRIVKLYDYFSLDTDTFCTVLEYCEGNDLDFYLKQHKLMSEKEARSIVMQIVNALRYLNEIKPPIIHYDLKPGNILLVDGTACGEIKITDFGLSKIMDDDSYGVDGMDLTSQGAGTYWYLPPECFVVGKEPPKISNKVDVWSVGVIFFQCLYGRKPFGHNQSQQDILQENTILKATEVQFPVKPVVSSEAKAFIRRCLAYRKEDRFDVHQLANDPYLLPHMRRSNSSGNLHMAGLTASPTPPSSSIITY
# Experimental: as §1
# [4] = target: PCTAIRE1 (Homo sapiens, UniProt Q00536); conditions: MOLM-13; 100 nM, 2 hours; Lys1; read-out: Inhibition vs DMSO
# Experimental: as §1
# [5] = target: NDR1 (Homo sapiens, UniProt Q15208); conditions: MOLM-13, 2 h, 100 nM
# Experimental: as §1
# [6] = target: NDR2 (Homo sapiens, UniProt Q9Y2H1); conditions: MOLM-13; 100 nM, 2 hours; Lys1; read-out: Inhibition vs DMSO
# Experimental: as §1
# [7] = target: T3, MSK2 domain1 (Homo sapiens, UniProt O75676); conditions: MOLM-13, 2 h, 100 nM
# T3 construct: MSK2 domain1
# Experimental: as §1
# [8] = target: CCRK (Homo sapiens, UniProt Q8IZL9); conditions: MOLM-13; 100 nM, 2 hours; Lys2; read-out: Inhibition vs DMSO
# Experimental: as §1
# [9] = target: CDK2 (Homo sapiens, UniProt P24941); conditions: 100 nM, 2 hours
# Experimental: as §1
# [10] = target: T4, RSK2 domain1 (Homo sapiens, UniProt P51812); conditions: MOLM-13, 2 h, 100 nM
# T4 construct: RSK2 domain1
# Experimental: as §1
# [11] = target: MAP3K3 (Homo sapiens, UniProt Q99759); conditions: MOLM-13; 100 nM, 2 hours; Lys1; read-out: Inhibition vs DMSO
# Experimental: as §1
# [12] = target: RSKL1 (Homo sapiens, UniProt Q96S38); conditions: MOLM-13; 100 nM, 2 hours; ATP; read-out: Inhibition vs DMSO
# Experimental: as §1
# [13] = target: CDK6 (Homo sapiens, UniProt Q00534); conditions: MOLM-13; 100 nM, 2 hours; Lys2; read-out: Inhibition vs DMSO
# Experimental: as §1
# [14] = target: p38b (Homo sapiens, UniProt Q15759); conditions: MOLM-13; 100 nM, 2 hours; Other; read-out: Inhibition vs DMSO
# Experimental: as §1
# [15] = target: PIP4K2A (Homo sapiens, UniProt P48426); conditions: MOLM-13; 100 nM, 2 hours; ATP; read-out: Inhibition vs DMSO
# Experimental: as §1
# [16] = target: PYK2 (Homo sapiens, UniProt Q14289); conditions: MOLM-13; 100 nM, 2 hours; Activation Loop; read-out: Inhibition vs DMSO
# Experimental: as §1
# [17] = target: p38a (Homo sapiens, UniProt Q16539); conditions: 100 nM, 2 hours
# Experimental: as §1
# [18] = target: T5, JAK1 domain2 (Homo sapiens, UniProt P23458); conditions: 100 nM, 2 hours
# T5 construct: JAK1 domain2
# Experimental: as §1
# [19] = target: NEK7 (Homo sapiens, UniProt Q8TDX7); conditions: MOLM-13; 100 nM, 2 hours; Lys1; read-out: Inhibition vs DMSO
# Experimental: as §1
# [20] = target: PIK3CD (Homo sapiens, UniProt O00329); conditions: MOLM-13; 100 nM, 2 hours; ATP; read-out: Inhibition vs DMSO
# Experimental: as §1
# [21] = target: MLK3 (Homo sapiens, UniProt Q16584); conditions: 100 nM, 2 hours; Lys2
# Experimental: as §1
# [22] = target: HPK1 (Homo sapiens, UniProt Q92918); conditions: MOLM-13, 2 h, 100 nM
# Experimental: as §1
# [23] = target: ACK (Homo sapiens, UniProt Q07912); conditions: MOLM-13; 100 nM, 2 hours; Lys1; read-out: Inhibition vs DMSO
# Experimental: as §1
# [24] = target: CDK7 (Homo sapiens, UniProt P50613); conditions: MOLM-13; 100 nM, 2 hours; Lys2; read-out: Inhibition vs DMSO
# Experimental: as §1
# [25] = target: CSK (Homo sapiens, UniProt P41240); conditions: 100 nM, 2 hours; Activation Loop
# Experimental: as §1
# [26] = target: Erk5 (Homo sapiens, UniProt Q13164); conditions: MOLM-13; 100 nM, 2 hours; Lys2; read-out: Inhibition vs DMSO
# Experimental: as §1
# [27] = target: KSR1 (Homo sapiens, UniProt Q8IVT5); conditions: MOLM-13; 100 nM, 2 hours; Activation Loop; read-out: Inhibition vs DMSO
# Experimental: as §1
# [28] = Lys1, read-out: Inhibition vs DMSO
# [29] = Lys2, read-out: Inhibition vs DMSO
# Sequence of NDR1 (Q15208 whole entry): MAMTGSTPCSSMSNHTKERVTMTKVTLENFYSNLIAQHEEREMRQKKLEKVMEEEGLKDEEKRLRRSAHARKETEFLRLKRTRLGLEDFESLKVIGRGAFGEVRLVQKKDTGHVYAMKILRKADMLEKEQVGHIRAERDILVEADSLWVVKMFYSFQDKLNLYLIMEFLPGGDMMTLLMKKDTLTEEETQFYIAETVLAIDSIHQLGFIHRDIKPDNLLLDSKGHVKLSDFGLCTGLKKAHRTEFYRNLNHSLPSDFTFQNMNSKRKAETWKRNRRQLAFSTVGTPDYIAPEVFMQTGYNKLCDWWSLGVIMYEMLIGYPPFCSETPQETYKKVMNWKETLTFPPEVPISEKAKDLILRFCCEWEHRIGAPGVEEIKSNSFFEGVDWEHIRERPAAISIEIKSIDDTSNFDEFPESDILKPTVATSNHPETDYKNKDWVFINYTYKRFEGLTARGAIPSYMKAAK
# T3 sequence (O75676 whole entry, the tested form may be a part): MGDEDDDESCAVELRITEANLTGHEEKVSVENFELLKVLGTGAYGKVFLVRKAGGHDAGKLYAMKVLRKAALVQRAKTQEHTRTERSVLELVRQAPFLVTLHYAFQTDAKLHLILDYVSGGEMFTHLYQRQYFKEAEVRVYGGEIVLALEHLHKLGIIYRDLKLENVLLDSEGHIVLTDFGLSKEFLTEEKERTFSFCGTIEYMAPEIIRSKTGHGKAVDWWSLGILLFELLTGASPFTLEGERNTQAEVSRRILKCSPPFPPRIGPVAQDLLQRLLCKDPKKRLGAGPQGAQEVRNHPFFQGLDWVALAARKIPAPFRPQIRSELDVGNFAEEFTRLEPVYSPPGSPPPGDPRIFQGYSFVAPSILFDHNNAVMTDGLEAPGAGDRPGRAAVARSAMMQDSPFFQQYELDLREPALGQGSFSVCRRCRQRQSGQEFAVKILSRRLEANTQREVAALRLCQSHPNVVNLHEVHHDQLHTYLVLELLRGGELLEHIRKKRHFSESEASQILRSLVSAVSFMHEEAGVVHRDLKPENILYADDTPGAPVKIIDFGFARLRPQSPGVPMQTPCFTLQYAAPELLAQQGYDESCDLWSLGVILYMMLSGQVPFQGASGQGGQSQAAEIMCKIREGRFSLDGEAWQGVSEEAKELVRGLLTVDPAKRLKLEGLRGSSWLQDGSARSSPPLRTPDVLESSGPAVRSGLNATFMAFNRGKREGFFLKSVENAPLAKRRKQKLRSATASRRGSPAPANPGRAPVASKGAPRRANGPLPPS
# T5 sequence (P23458 whole entry, the tested form may be a part): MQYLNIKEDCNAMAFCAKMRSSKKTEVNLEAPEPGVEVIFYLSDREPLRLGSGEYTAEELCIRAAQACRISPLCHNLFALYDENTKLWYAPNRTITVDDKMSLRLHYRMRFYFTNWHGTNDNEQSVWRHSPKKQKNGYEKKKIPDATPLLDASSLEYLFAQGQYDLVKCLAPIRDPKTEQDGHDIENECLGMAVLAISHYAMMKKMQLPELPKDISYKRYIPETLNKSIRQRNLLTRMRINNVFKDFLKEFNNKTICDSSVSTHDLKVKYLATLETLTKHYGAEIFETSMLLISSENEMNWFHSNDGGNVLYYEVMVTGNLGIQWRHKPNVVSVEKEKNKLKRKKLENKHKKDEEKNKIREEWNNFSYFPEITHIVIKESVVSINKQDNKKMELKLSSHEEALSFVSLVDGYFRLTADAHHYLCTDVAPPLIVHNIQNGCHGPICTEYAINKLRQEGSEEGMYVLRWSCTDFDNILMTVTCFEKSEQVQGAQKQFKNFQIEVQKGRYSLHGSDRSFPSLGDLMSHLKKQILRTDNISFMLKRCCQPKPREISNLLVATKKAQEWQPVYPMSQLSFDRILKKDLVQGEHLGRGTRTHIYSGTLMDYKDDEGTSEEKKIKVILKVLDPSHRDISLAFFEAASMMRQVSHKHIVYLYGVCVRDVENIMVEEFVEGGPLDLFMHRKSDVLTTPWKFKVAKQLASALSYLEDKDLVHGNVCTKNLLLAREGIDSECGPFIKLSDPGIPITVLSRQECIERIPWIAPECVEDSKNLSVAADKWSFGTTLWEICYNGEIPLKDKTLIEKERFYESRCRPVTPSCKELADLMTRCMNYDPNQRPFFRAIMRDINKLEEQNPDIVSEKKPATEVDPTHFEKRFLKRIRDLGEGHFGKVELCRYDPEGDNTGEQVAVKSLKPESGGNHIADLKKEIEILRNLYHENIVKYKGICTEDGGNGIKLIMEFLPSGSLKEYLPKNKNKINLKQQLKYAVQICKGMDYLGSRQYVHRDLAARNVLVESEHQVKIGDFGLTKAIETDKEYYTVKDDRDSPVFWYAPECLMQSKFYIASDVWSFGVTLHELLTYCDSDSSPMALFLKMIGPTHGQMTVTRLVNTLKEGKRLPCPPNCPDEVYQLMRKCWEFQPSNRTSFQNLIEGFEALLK
# Sequence of HPK1 (Q92918 whole entry): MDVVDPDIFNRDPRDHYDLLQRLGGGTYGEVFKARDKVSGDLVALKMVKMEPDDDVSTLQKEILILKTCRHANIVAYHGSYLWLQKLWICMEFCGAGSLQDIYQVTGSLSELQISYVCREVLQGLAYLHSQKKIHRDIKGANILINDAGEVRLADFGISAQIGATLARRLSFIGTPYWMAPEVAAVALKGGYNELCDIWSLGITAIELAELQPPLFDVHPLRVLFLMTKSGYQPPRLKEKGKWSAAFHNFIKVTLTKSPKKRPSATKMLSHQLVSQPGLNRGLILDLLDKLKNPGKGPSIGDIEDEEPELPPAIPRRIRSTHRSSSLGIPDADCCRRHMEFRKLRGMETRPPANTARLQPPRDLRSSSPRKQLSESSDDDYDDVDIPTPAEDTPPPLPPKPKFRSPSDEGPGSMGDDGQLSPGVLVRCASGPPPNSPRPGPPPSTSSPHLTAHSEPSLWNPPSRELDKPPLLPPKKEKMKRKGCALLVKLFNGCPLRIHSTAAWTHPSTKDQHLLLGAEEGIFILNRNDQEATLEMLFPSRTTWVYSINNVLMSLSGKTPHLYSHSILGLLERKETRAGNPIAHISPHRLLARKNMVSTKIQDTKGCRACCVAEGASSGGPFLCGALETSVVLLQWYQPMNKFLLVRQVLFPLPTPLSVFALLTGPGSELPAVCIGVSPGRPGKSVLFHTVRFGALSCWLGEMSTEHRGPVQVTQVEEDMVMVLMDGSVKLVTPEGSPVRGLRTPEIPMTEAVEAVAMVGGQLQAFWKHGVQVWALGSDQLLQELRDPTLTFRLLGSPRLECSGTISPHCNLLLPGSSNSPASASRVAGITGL
# Sequence of p38a (Q16539 whole entry): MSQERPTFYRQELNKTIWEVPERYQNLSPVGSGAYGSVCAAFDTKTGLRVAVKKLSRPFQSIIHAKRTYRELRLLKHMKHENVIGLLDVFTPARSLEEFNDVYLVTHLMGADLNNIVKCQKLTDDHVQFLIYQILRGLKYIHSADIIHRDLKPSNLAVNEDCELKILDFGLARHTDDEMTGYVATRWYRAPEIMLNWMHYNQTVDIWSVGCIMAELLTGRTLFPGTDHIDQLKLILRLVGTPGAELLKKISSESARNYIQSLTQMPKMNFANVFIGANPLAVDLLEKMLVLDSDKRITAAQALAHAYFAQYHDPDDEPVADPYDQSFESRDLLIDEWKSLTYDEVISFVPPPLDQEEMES
# T4 sequence (P51812 whole entry, the tested form may be a part): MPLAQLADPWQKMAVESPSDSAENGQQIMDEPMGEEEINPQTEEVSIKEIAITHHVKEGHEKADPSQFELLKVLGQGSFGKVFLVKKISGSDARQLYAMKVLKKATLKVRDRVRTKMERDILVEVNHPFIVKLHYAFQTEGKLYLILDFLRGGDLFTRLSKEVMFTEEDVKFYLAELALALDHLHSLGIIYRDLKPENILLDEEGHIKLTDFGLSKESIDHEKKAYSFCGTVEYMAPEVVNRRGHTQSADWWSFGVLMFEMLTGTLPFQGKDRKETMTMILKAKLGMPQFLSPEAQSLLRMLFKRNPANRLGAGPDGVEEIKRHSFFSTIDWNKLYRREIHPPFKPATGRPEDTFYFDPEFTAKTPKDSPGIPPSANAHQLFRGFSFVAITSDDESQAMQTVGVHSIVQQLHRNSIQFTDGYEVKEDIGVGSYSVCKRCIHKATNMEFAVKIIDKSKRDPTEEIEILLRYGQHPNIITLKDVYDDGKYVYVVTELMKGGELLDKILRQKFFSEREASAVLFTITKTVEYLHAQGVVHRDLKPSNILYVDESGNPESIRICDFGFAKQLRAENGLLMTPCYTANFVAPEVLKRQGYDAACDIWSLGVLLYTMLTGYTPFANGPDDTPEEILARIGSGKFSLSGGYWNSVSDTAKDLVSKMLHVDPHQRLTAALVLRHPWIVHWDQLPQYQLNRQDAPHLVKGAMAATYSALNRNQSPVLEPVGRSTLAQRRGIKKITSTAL
# Sequence of CCRK (Q8IZL9 whole entry): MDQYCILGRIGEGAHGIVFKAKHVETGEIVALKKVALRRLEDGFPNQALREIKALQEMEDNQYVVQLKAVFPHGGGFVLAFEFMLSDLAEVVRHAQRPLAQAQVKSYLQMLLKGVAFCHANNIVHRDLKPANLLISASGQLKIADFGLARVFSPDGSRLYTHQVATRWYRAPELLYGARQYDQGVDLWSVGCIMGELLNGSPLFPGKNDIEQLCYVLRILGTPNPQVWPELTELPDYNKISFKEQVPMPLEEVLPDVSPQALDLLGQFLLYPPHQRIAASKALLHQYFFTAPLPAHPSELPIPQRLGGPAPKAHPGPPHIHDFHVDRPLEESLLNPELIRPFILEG
# Sequence of CDK6 (Q00534 whole entry): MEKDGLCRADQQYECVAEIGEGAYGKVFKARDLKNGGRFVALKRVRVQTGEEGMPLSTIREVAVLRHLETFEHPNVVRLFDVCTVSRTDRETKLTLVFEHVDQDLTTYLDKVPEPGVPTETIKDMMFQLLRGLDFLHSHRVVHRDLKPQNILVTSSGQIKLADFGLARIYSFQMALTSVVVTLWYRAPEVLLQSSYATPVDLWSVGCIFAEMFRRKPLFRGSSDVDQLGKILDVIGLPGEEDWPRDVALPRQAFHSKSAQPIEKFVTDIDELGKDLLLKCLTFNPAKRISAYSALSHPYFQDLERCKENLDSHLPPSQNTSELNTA
smiles,measurement,setting,value
CN1CCN(Cc2ccc(Nc3ncc(Cl)c(Nc4ccccc4S(=O)(=O)N(C)C)n3)cc2)CC1 [TP-0903],inhibition at 0.1 µM,[1],-4.6%
same,Inhibition vs DMSO,[2],-68.6%
same,inhibition at 0.1 µM,[3],16%
same,inhibition at 0.1 µM,[4],69.6%
same,inhibition at 0.1 µM,[5]; [28],3.7%
same,inhibition at 0.1 µM,[5]; [29],-11.4%
same,inhibition at 0.1 µM,[6],-0.6%
same,inhibition at 0.1 µM,[7]; [28],13.3%
same,inhibition at 0.1 µM,[7]; [29],26.8%
same,inhibition at 0.1 µM,[8],68.3%
same,Inhibition vs DMSO,[9]; Lys1,2.7%
same,Inhibition vs DMSO,[9]; Lys2,16.8%
same,inhibition at 0.1 µM,"[10]; Activation Loop, read-out: Inhibition vs DMSO",22.7%
same,inhibition at 0.1 µM,[10]; [29],-0.9%
same,inhibition at 0.1 µM,[11],13%
same,inhibition at 0.1 µM,[12],-8.3%
same,inhibition at 0.1 µM,[13],80.8%
same,inhibition at 0.1 µM,[14],-5%
same,inhibition at 0.1 µM,[15],-28.1%
same,inhibition at 0.1 µM,[16],21.6%
same,Inhibition vs DMSO,[17]; Lys2,-1.9%
same,Inhibition vs DMSO,[17]; Other,17.3%
same,Inhibition vs DMSO,[18]; Activation Loop,-23.7%
same,Inhibition vs DMSO,[18]; Lys1,-597.8%
same,inhibition at 0.1 µM,[19],-26%
same,inhibition at 0.1 µM,[20],-4.6%
same,Inhibition vs DMSO,[21],20.5%
same,inhibition at 0.1 µM,[22]; [28],58.7%
same,inhibition at 0.1 µM,[22]; [29],55.7%
same,inhibition at 0.1 µM,[23],44.5%
same,inhibition at 0.1 µM,[24],86.1%
same,Inhibition vs DMSO,[25],-5.0%
same,inhibition at 0.1 µM,[26],84.9%
same,inhibition at 0.1 µM,[27],-11%

# — publication PMC7714403 (JCI Insight, 2020)
